Assay results reported in patent publication US20240270762A1, “PENICILLIN-BINDING PROTEIN INHIBITORS” (priority 2021, published 2024).
≈ marks a conversion by molar mass, not a printed value.

What was measured:
[1] = system: N. gonorrhoeae WHO G; assay: Liquid broth MIC in Fastidious broth; conditions: Neisseria gonorrhoeae, read-out: Minimum Inhibitory Concentration (MIC), N. gonorrhoeae WHO G
[2] = system: N. gonorrhoeae WHO X; assay: Liquid broth MIC in Fastidious broth; conditions: Neisseria gonorrhoeae, read-out: Minimum Inhibitory Concentration (MIC), N. gonorrhoeae WHO X
[3] = biological target: T1, PBP3 from Escherichia coli (K-12) (Escherichia coli, UniProt P0AD68); assay: Bocillin-FL fluorescence polarization competition binding, E. coli PBP3
T1 construct: made in house
T1 sequence (P0AD68 1-577): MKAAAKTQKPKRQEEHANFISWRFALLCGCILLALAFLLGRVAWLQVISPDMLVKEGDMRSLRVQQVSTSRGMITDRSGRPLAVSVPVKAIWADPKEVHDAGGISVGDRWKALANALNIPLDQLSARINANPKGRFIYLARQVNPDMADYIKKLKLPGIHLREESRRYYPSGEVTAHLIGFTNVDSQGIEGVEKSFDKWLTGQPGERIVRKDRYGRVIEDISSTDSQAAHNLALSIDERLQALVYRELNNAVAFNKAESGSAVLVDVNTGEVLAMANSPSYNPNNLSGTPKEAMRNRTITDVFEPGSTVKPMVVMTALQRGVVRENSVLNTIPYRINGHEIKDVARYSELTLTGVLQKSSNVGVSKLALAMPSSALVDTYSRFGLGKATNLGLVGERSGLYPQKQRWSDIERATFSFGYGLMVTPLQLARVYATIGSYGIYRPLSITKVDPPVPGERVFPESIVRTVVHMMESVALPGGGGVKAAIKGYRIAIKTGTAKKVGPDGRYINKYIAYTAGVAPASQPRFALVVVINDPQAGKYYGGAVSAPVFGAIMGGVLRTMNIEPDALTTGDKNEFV
How it was run: (§1)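 Purified PBPs pre-incubated with inhibitor (E. coli PBP3 1.5 μM, 30 min; P. aeruginosa PBP3 0.75 μM, A. baumannii PBP1a 1 μM and PBP3 0.2 μM, 15 min), then Bocillin-FL 0.1 μM (0.05 μM for PBP1a) added; FP read up to 60 min. EC50 = concentration halving bound Bocillin-FL.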

[4] = system: A. baumannii CDC-0083; assay: microbe, parasite or virus in culture; type: cell-based; conditions: Acinetobacter baumannii, CDC0083, read-out: MIC, A. baumannii CDC-0083
[5] = system: P. aeruginosa CDC-0110; assay: microbe, parasite or virus in culture; type: cell-based; conditions: Pseudomonas aeruginosa, CDC0110, read-out: Minimum inhibitory concentration, P. aeruginosa CDC-0110
[6] = system: P. aeruginosa ATCC 27853; assay: microbe, parasite or virus in culture; type: cell-based; conditions: Pseudomonas aeruginosa, ATCC27853, read-out: Minimum inhibitory concentration, P. aeruginosa ATCC 27853
[7] = system: P. aeruginosa CDC-0054; assay: microbe, parasite or virus in culture; type: cell-based; conditions: Pseudomonas aeruginosa, CDC0054, read-out: Minimum inhibitory concentration, P. aeruginosa CDC-0054
[8] = system: P. aeruginosa CDC-0090; assay: microbe, parasite or virus in culture; type: cell-based; conditions: Pseudomonas aeruginosa, CDC0090, read-out: Minimum inhibitory concentration, P. aeruginosa CDC-0090
[9] = system: N. gonorrhoeae ATCC 49226; assay: Liquid broth MIC in Fastidious broth; conditions: Neisseria gonorrhoeae, ATCC49226, read-out: Minimum Inhibitory Concentration (MIC), N. gonorrhoeae ATCC 49226
[10] = system: A. baumannii CDC-0033; assay: microbe, parasite or virus in culture; type: cell-based; conditions: Acinetobacter baumannii, CDC0033, read-out: MIC, A. baumannii CDC-0033
[11] = system: N. gonorrhoeae CDC-0197; assay: Liquid broth MIC in Fastidious broth; conditions: Neisseria gonorrhoeae, CDC0197, read-out: Minimum Inhibitory Concentration (MIC), N. gonorrhoeae CDC-0197
[12] = system: B. humptydooensis ATCC BAA-2767; assay: microbe, parasite or virus in culture; type: cell-based; conditions: Burkholderia humptydooensis, ATCCBAA2767, read-out: Minimum inhibitory concentration (MIC), B. humptydooensis ATCC BAA-2767
[13] = system: B. thailandensis ATCC 700388; assay: microbe, parasite or virus in culture; type: cell-based; conditions: Burkholderia thailandensis, ATCC700388, read-out: Minimum inhibitory concentration (MIC), B. thailandensis ATCC 700388
[14] = biological target: T2, PBP3 from Pseudomonas aeruginosa (PAO1) (Pseudomonas aeruginosa, UniProt G3XD46); assay: Bocillin-FL fluorescence polarization competition binding, P. aeruginosa PBP3; conditions: Binding affinity to P. aeruginosa PBP3; fluorescence polarization competition binding assay using Bocillin-FL; read-out: P. aeruginosa PBP3 Potency
T2 construct: made in house
T2 sequence (G3XD46 whole entry): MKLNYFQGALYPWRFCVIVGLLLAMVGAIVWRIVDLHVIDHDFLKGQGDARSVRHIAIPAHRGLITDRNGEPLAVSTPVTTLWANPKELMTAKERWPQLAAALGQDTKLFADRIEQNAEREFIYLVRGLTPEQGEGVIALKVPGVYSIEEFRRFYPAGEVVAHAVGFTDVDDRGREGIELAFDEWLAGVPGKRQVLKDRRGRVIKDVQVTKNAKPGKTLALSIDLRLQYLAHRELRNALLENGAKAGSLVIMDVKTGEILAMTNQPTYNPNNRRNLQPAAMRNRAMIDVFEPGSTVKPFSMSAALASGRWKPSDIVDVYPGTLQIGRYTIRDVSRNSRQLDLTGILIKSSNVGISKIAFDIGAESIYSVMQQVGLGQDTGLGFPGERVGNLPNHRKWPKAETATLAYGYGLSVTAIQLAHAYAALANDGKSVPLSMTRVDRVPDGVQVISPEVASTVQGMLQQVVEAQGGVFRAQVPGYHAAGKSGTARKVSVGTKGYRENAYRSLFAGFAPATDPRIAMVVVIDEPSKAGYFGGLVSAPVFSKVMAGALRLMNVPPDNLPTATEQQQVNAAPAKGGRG
How it was run: as §1

[15] = system: P. aeruginosa CDC-0095; assay: microbe, parasite or virus in culture; type: cell-based; conditions: Pseudomonas aeruginosa, CDC0095, read-out: Minimum inhibitory concentration, P. aeruginosa CDC-0095

SMILES	MIC [1]	MIC [2]	EC50 [3]	MIC [4]	MIC [5]	MIC [6]	MIC [7]	MIC [8]	MIC [9]	MIC [10]	MIC [11]	MIC [12]	MIC [13]	IC50 [14]	MIC [15]
O=C(NCCCN1CCN(C(=O)NC(C(=O)N[C@H]2Cc3ccc(F)c(C(=O)O)c3OB2O)c2cc(F)c(O)c(O)c2Cl)C(=O)C1=O)Nc1cccc(O)c1 (stereo partly drawn) [Example 206, (3R)-3-(2-(2-chloro-5-fluoro-3,4-dihydroxyphenyl)-2-(4-(3-(3-(3-hydroxyphenyl)ureido)propyl)-2,3-dioxopiperazine-1-carboxamido)acetamido)-7-fluoro-2-hydroxy-3,4-dihydro-2H-benzo[e][1,2]oxaborinine-8-carboxylic acid]	4 to 8 µg/mL (≈ 5.16 to 10.3 µM)	> 64 µg/mL	< 10 µM	< 1 µg/mL	< 1 µg/mL	2 to 4 µg/mL (≈ 2.58 to 5.16 µM)	< 1 µg/mL	< 1 µg/mL	16 to 32 µg/mL (≈ 20.6 to 41.3 µM)	2 to 4 µg/mL (≈ 2.58 to 5.16 µM)	16 to 32 µg/mL (≈ 20.6 to 41.3 µM)	< 1 µg/mL	2 to 4 µg/mL (≈ 2.58 to 5.16 µM)	< 10 µM	< 1 µg/mL
O=C(NCCCN1CCN(C(=O)N[C@@H](C(=O)N[C@H]2Cc3ccc(F)c(C(=O)O)c3OB2O)c2cc(F)c(O)c(O)c2Cl)C(=O)C1=O)c1cccnc1 [Example 210, (R)-3-((R)-2-(2-chloro-5-fluoro-3,4-dihydroxyphenyl)-2-(4-(3-(nicotinamido)propyl)-2,3-dioxopiperazine-1-carboxamido)acetamido)-7-fluoro-2-hydroxy-3,4-dihydro-2H-benzo[e][1,2]oxaborinine-8-carboxylic acid]	4 to 8 µg/mL (≈ 5.37 to 10.7 µM)	> 64 µg/mL	< 10 µM	2 to 4 µg/mL (≈ 2.69 to 5.37 µM)	< 1 µg/mL	2 to 4 µg/mL (≈ 2.69 to 5.37 µM)	< 1 µg/mL	< 1 µg/mL	16 to 32 µg/mL (≈ 21.5 to 43 µM)	8 to 16 µg/mL (≈ 10.7 to 21.5 µM)	> 64 µg/mL	< 1 µg/mL	< 1 µg/mL	< 10 µM	< 1 µg/mL
O=C(NCCN1CCN(C(=O)NC(C(=O)N[C@H]2Cc3ccc(F)c(C(=O)O)c3OB2O)c2cc(F)c(O)c(O)c2Cl)C(=O)C1=O)c1ccc(O)cc1 (stereo partly drawn) [Example 214, (3R)-3-(2-(2-chloro-5-fluoro-3,4-dihydroxyphenyl)-2-(4-(2-(4-hydroxybenzamido)ethyl)-2,3-dioxopiperazine-1-carboxamido)acetamido)-7-fluoro-2-hydroxy-3,4-dihydro-2H-benzo[e][1,2]oxaborinine-8-carboxylic acid]	4 to 8 µg/mL (≈ 5.36 to 10.7 µM)	> 64 µg/mL	< 10 µM	> 128 µg/mL	< 1 µg/mL	2 to 4 µg/mL (≈ 2.68 to 5.36 µM)	2 to 4 µg/mL (≈ 2.68 to 5.36 µM)	< 1 µg/mL	4 to 8 µg/mL (≈ 5.36 to 10.7 µM)	8 to 16 µg/mL (≈ 10.7 to 21.5 µM)	16 to 32 µg/mL (≈ 21.5 to 42.9 µM)	< 1 µg/mL	8 to 16 µg/mL (≈ 10.7 to 21.5 µM)	< 10 µM	2 to 4 µg/mL (≈ 2.68 to 5.36 µM)
O=C(NCCN1CCN(C(=O)NC(C(=O)N[C@H]2Cc3ccc(F)c(C(=O)O)c3OB2O)c2cc(F)c(O)c(O)c2Cl)C(=O)C1=O)c1cccc(O)c1 (stereo partly drawn) [Example 215, (3R)-3-(2-(2-chloro-5-fluoro-3,4-dihydroxyphenyl)-2-(4-(2-(3-hydroxybenzamido)ethyl)-2,3-dioxopiperazine-1-carboxamido)acetamido)-7-fluoro-2-hydroxy-3,4-dihydro-2H-benzo[e][1,2]oxaborinine-8-carboxylic acid]	4 to 8 µg/mL (≈ 5.36 to 10.7 µM)	> 64 µg/mL	< 10 µM	> 128 µg/mL	< 1 µg/mL	2 to 4 µg/mL (≈ 2.68 to 5.36 µM)	8 to 16 µg/mL (≈ 10.7 to 21.5 µM)	< 1 µg/mL	16 to 32 µg/mL (≈ 21.5 to 42.9 µM)	8 to 16 µg/mL (≈ 10.7 to 21.5 µM)	16 to 32 µg/mL (≈ 21.5 to 42.9 µM)	< 1 µg/mL	8 to 16 µg/mL (≈ 10.7 to 21.5 µM)	< 10 µM	2 to 4 µg/mL (≈ 2.68 to 5.36 µM)
O=C(NCCN1CCN(C(=O)NC(C(=O)N[C@H]2Cc3ccc(F)c(C(=O)O)c3OB2O)c2cc(F)c(O)c(O)c2Cl)C(=O)C1=O)c1ccncc1 (stereo partly drawn) [Example 216, (3R)-3-(2-(2-chloro-5-fluoro-3,4-dihydroxyphenyl)-2-(4-(2-(isonicotinamido)ethyl)-2,3-dioxopiperazine-1-carboxamido)acetamido)-7-fluoro-2-hydroxy-3,4-dihydro-2H-benzo[e][1,2]oxaborinine-8-carboxylic acid]	4 to 8 µg/mL (≈ 5.47 to 10.9 µM)	> 64 µg/mL	< 10 µM	> 128 µg/mL	< 1 µg/mL	2 to 4 µg/mL (≈ 2.74 to 5.47 µM)	8 to 16 µg/mL (≈ 10.9 to 21.9 µM)	< 1 µg/mL	16 to 32 µg/mL (≈ 21.9 to 43.8 µM)	8 to 16 µg/mL (≈ 10.9 to 21.9 µM)	16 to 32 µg/mL (≈ 21.9 to 43.8 µM)	< 1 µg/mL	2 to 4 µg/mL (≈ 2.74 to 5.47 µM)	< 10 µM	8 to 16 µg/mL (≈ 10.9 to 21.9 µM)
O=C(NCCN1CCN(C(=O)NC(C(=O)N[C@H]2Cc3ccc(F)c(C(=O)O)c3OB2O)c2cc(F)c(O)c(O)c2Cl)C(=O)C1=O)c1cccnc1 (stereo partly drawn) [Example 217, (3R)-3-(2-(2-chloro-5-fluoro-3,4-dihydroxyphenyl)-2-(4-(2-(nicotinamido)ethyl)-2,3-dioxopiperazine-1-carboxamido)acetamido)-7-fluoro-2-hydroxy-3,4-dihydro-2H-benzo[e][1,2]oxaborinine-8-carboxylic acid]	16 to 32 µg/mL (≈ 21.9 to 43.8 µM)	> 64 µg/mL	< 10 µM	> 128 µg/mL	< 1 µg/mL	2 to 4 µg/mL (≈ 2.74 to 5.47 µM)	< 1 µg/mL	2 to 4 µg/mL (≈ 2.74 to 5.47 µM)	16 to 32 µg/mL (≈ 21.9 to 43.8 µM)	8 to 16 µg/mL (≈ 10.9 to 21.9 µM)	16 to 32 µg/mL (≈ 21.9 to 43.8 µM)	< 1 µg/mL	2 to 4 µg/mL (≈ 2.74 to 5.47 µM)	< 10 µM	2 to 4 µg/mL (≈ 2.74 to 5.47 µM)
O=C(NCCN1CCN(C(=O)NC(C(=O)N[C@H]2Cc3ccc(F)c(C(=O)O)c3OB2O)c2cc(F)c(O)c(O)c2Cl)C(=O)C1=O)c1nccs1 (stereo partly drawn) [Example 218, (3R)-3-(2-(2-chloro-5-fluoro-3,4-dihydroxyphenyl)-2-(2,3-dioxo-4-(2-(thiazole-2-carboxamido)ethyl)piperazine-1-carboxamido)acetamido)-7-fluoro-2-hydroxy-3,4-dihydro-2H-benzo[e][1,2]oxaborinine-8-carboxylic acid]	16 to 32 µg/mL (≈ 21.7 to 43.4 µM)	> 64 µg/mL	< 10 µM	8 to 16 µg/mL (≈ 10.9 to 21.7 µM)	2 to 4 µg/mL (≈ 2.71 to 5.43 µM)	2 to 4 µg/mL (≈ 2.71 to 5.43 µM)	8 to 16 µg/mL (≈ 10.9 to 21.7 µM)	< 1 µg/mL	16 to 32 µg/mL (≈ 21.7 to 43.4 µM)	8 to 16 µg/mL (≈ 10.9 to 21.7 µM)	16 to 32 µg/mL (≈ 21.7 to 43.4 µM)	2 to 4 µg/mL (≈ 2.71 to 5.43 µM)	2 to 4 µg/mL (≈ 2.71 to 5.43 µM)	< 10 µM	8 to 16 µg/mL (≈ 10.9 to 21.7 µM)
O=C(NCCN1CCN(C(=O)NC(C(=O)N[C@H]2Cc3ccc(F)c(C(=O)O)c3OB2O)c2cc(F)c(O)c(O)c2Cl)C(=O)C1=O)Nc1ccc(O)cc1 (stereo partly drawn) [Example 219, (3R)-3-(2-(2-chloro-5-fluoro-3,4-dihydroxyphenyl)-2-(4-(2-(3-(4-hydroxyphenyl)ureido)ethyl)-2,3-dioxopiperazine-1-carboxamido)acetamido)-7-fluoro-2-hydroxy-3,4-dihydro-2H-benzo[e][1,2]oxaborinine-8-carboxylic acid]	16 to 32 µg/mL (≈ 21 to 42.1 µM)	> 64 µg/mL	< 10 µM	8 to 16 µg/mL (≈ 10.5 to 21 µM)	< 1 µg/mL	2 to 4 µg/mL (≈ 2.63 to 5.26 µM)	8 to 16 µg/mL (≈ 10.5 to 21 µM)	< 1 µg/mL	16 to 32 µg/mL (≈ 21 to 42.1 µM)	8 to 16 µg/mL (≈ 10.5 to 21 µM)	> 64 µg/mL	8 to 16 µg/mL (≈ 10.5 to 21 µM)	8 to 16 µg/mL (≈ 10.5 to 21 µM)	< 10 µM	8 to 16 µg/mL (≈ 10.5 to 21 µM)
O=C(NCCN1CCN(C(=O)NC(C(=O)N[C@H]2Cc3ccc(F)c(C(=O)O)c3OB2O)c2cc(F)c(O)c(O)c2Cl)C(=O)C1=O)Nc1cccc(O)c1 (stereo partly drawn) [Example 220, (3R)-3-(2-(2-chloro-5-fluoro-3,4-dihydroxyphenyl)-2-(4-(2-(3-(3-hydroxyphenyl)ureido)ethyl)-2,3-dioxopiperazine-1-carboxamido)acetamido)-7-fluoro-2-hydroxy-3,4-dihydro-2H-benzo[e][1,2]oxaborinine-8-carboxylic acid]	4 to 8 µg/mL (≈ 5.26 to 10.5 µM)	> 64 µg/mL	< 10 µM	8 to 16 µg/mL (≈ 10.5 to 21 µM)	< 1 µg/mL	2 to 4 µg/mL (≈ 2.63 to 5.26 µM)	8 to 16 µg/mL (≈ 10.5 to 21 µM)	< 1 µg/mL	16 to 32 µg/mL (≈ 21 to 42.1 µM)	2 to 4 µg/mL (≈ 2.63 to 5.26 µM)	> 64 µg/mL	32 to 64 µg/mL (≈ 42.1 to 84.1 µM)	8 to 16 µg/mL (≈ 10.5 to 21 µM)	< 10 µM	8 to 16 µg/mL (≈ 10.5 to 21 µM)
